Measured values: patent US20250163057A1, “DCN-1 MODULATING COMPOUNDS AND METHODS OF USE THEREOF” (Cellarity, Inc., priority 2023, published 2025)
Read-outs that look alike come from different tables or passages of the source.

Key:
[1] = target: DCN1 (DCUND1) protein PONY domain (Homo sapiens (Human), UniProt Q96GG9); experiment: TR-FRET assay, DCN1 binding with FAM-labeled probe
Outline: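 Binding was read as the TR-FRET ratio between a FAM-tagged inhibitor probe and Tb-labeled biotinylated E. coli-expressed DCN1 PONY domain, measured 1, 5 and 24 h after compound addition. The two setups used 5 nM protein/20 nM FAM-probe or 0.31 nM protein/900 nM total probe (100 nM labeled), in TritonX buffer with 200 mM NaCl.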

[2] = system: Cullin-3 (CUL3) neddylation; experiment: AlphaLISA assay for Cullin-3 (CUL3) neddylation in TF 1 cells; format: cell-based; details: 3 hours treatment
Outline: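 Neddylated CUL3 was quantified by AlphaLISA in lysates of TF 1 cells exposed for 3 h to test compound in IMDM without supplements. Percent inhibition set between vehicle and 1 μM DI-1548 positive control; IC50 derived by Hill-equation fitting of dose-response curves.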

[3] = 24 hr after treatment with compound, read-out: TR FRET IC50 24 hr
[4] = TR FRET IC50 1 hr (nM), 1 hr after treatment with compound
[5] = read-out: TR FRET IC50 1 hr, 1 hr after treatment with compound

Sequence of DCN1 (DCUND1) protein PONY domain (Q96GG9 60-248): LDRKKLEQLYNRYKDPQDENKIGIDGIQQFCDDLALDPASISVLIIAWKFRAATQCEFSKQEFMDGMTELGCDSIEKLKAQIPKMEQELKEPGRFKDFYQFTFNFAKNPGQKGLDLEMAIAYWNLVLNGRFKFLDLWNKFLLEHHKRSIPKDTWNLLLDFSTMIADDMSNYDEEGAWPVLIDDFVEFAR

Compound | IC50 [1, 3] | IC50 [1, 4] | IC50 ([2]; Homo sapiens, TF-1, 3 h) | IC50 [1, 5] | IC50 ([2]; Homo sapiens) | IC50 [2] | Neddylation IC50 (nM) [2]
CCN1C(=O)[C@H](NC(=O)c2cccc(C(F)(F)F)c2)[C@H](c2ccc(F)cc2)c2c(C(=O)N3[C@H](C#N)C[C@H]4C[C@H]43)nn(-c3ccccc3)c21 [Compound I-541] | 1000 to 3000 nM | 1000 to 3000 nM | > 1000 nM | – | – | – | –
CCCn1nc(C(=O)N(C)C(C)C#N)c2c1N(CC)C(=O)[C@@H](NC(=O)c1cccc(C(F)(F)F)c1)[C@H]2C1CC1 (stereo partly drawn) [Compound I-569] | ≤ 200 nM | 200 to 1000 nM | ≤ 100 nM | – | – | – | –
CCN1C(=O)[C@@H](NC(=O)c2cccc(C(F)(F)F)c2)[C@@H](C2CCCC2)c2c(C(=O)N(C)[C@H](C)C#N)nn(C3CCOCC3)c21 [Compound I-524] | ≤ 200 nM | 200 to 1000 nM | ≤ 100 nM | – | – | – | –
CCN1C(=O)[C@@H](NC(=O)c2cccc(C(F)(F)F)c2)[C@@H](C2CC2)c2c(C(=O)N3CCC[C@H]3C#N)nn(C3CC3)c21 [Compound I-454] | 200 to 1000 nM | 1000 to 3000 nM | ≤ 100 nM | – | – | – | –
CCN1C(=O)[C@@H](NC(=O)c2cccc(C(F)(F)F)c2)[C@H](c2ccc(F)cc2)c2c(CN(C)C(=O)CC#N)nn(-c3ccccc3)c21 [Compound I-403] | 200 to 1000 nM | 200 to 1000 nM | 100 to 1000 nM | – | – | – | –
CCN1C(=O)[C@@H](NC(=O)c2cccc(C(F)(F)F)c2)[C@@H](C2CC2)c2c(C(=O)N(C)[C@H](C#N)CCN(C)C3COC3)nn(C3CCOCC3)c21 [Compound I-429] | ≤ 200 nM | – | ≤ 100 nM | ≤ 200 nM | – | – | –
CCN1C(=O)[C@@H](NC(=O)c2cccc3c2OCC3)[C@@H](C2CC2)c2c(C(=O)N3[C@H](C#N)C[C@H]4C[C@H]43)nn(C3CCOCC3)c21 [Compound I-445] | ≤ 200 nM | – | – | ≤ 200 nM | ≤ 100 nM | – | –
CCN1C(=O)[C@@H](NC(=O)c2cccc(C(F)(F)F)c2)[C@@H](c2ccc(F)cc2)c2c(CNC/C=C/C(=O)N3CCCC3)nn(-c3ccccc3)c21 [Compound I-400] | ≤ 200 nM | – | 100 to 1000 nM | ≤ 200 nM | – | – | –
CCN1C(=O)[C@@H](NC(=O)c2nccc(C(F)(F)F)n2)[C@H](c2ccc(F)cc2)c2c(CN(C)C(=O)CC#N)nn(-c3ccccc3)c21 [Compound I-402, N-((4R,5S)-3-((2-cyano-N-methylacetamido)methyl)-7-ethyl-4-(4-fluorophenyl)-6-oxo-1-phenyl-4,5,6,7-tetrahydro-1H-pyrazolo[3,4-b]pyridin-5-yl)-4-(trifluoromethyl)pyrimidine-2-carboxamide] | 1000 to 3000 nM | 1000 to 3000 nM | 100 to 1000 nM | – | – | – | –
CCN1C(=O)[C@@H](NC(=O)c2ccc3ncsc3c2)[C@@H](C2CC2)c2c(C(=O)N3[C@H](C#N)C[C@H]4C[C@H]43)nn(C3CCOCC3)c21 [Compound I-669] | 200 to 1000 nM | 1000 to 3000 nM | 100 to 1000 nM | – | – | – | –
CCN1C(=O)[C@H](NC(=O)c2cccc(C(F)(F)F)c2)[C@H](c2ccc(F)cc2)c2c(C(=O)N3[C@H](C#N)C[C@@H]4C[C@@H]43)nn(-c3ccccc3)c21 [Compound I-463] | 1000 to 3000 nM | 1000 to 3000 nM | > 1000 nM | – | – | – | –
CCN(CC#N)C(=O)c1nn(-c2ccccc2)c2c1[C@@H](c1ccc(F)cc1)[C@@H](NC(=O)c1cccc(C(F)(F)F)c1)C(=O)N2CC (stereo in doubt) [Compound I-531] | ≤ 200 nM | 1000 to 3000 nM | 100 to 1000 nM | – | – | – | –
CCN1C(=O)[C@@H](NC(=O)c2cccc(C(F)(F)F)c2)[C@@H](c2ccc(F)cc2)c2c(C(F)CNC#N)nn(-c3ccccc3)c21 (mixture of isomers) [Compound I-679] | ≤ 200 nM | 200 to 1000 nM | ≤ 100 nM | – | – | – | –
CCN1C(=O)[C@@H](NC(=O)c2cccc(C(F)(F)F)c2)[C@@H](c2ccc(F)cc2)c2c(C(=O)N(C)[C@H](C#N)CCN(C)C3COC3)nn(C3CCOCC3)c21 [Compound I-470] | ≤ 200 nM | – | ≤ 100 nM | ≤ 200 nM | – | – | –
CCN1C(=O)[C@@H](NC(=O)c2cccc(C(F)(F)F)c2)[C@@H](C2CC2)c2c(C(=O)N(CC#N)C3CC3)nn(C3CC3)c21 [Compound I-702] | 200 to 1000 nM | 1000 to 3000 nM | 100 to 1000 nM | – | – | – | –
CCN1C(=O)[C@@H](NC(=O)c2cccc(C(F)(F)F)c2)[C@@H](C2CC2)c2c(C(=O)N3CCC=C3C#N)nn(C3CCOCC3)c21 [Compound I-437] | ≤ 200 nM | 1000 to 3000 nM | > 1000 nM | – | – | – | –
CCN1C(=O)[C@@](C)(NC(=O)c2cccc(C(F)(F)F)c2)[C@@H](c2ccc(F)cc2)c2c([C@@H](C)NC#N)nn(-c3ccccc3)c21 [Compound I-539] | ≤ 200 nM | – | ≤ 100 nM | ≤ 200 nM | – | – | –

Compound | IC50 [1, 3] | IC50 [1, 4] | IC50 ([2]; Homo sapiens, TF-1, 3 h) | IC50 [1, 5] | IC50 ([2]; Homo sapiens) | IC50 [2] | Neddylation IC50 (nM) [2]
CCN1C(=O)[C@H](NC(=O)c2cccc(C(F)(F)F)c2)[C@H](c2ccc(F)cc2)c2c(C(=O)N3CCC[C@H]3C#N)nn(-c3cccc(OCCN4CC5(COC5)C4)c3)c21 [Compound I-647] | 1000 to 3000 nM | 1000 to 3000 nM | > 1000 nM | – | – | – | –
CCN1C(=O)[C@H](NC(=O)c2cccc(C(F)(F)F)c2)C(C2CC2)c2c(C(=O)N3CCC[C@H]3C#N)nn(-c3ccccc3)c21 (stereo partly drawn) [Compound I-642] | 1000 to 3000 nM | 1000 to 3000 nM | > 1000 nM | – | – | – | –
CCN1C(=O)[C@@H](NC(=O)C(C2CC2)C2CC2)[C@@H](C2CC2)c2c(C(=O)N3[C@H](C#N)C[C@H]4C[C@H]43)nn(C3CCOCC3)c21 [Compound I-699] | 1000 to 3000 nM | 1000 to 3000 nM | > 1000 nM | – | – | – | –
CCN1C(=O)[C@@H](NC(=O)c2cccc(C(F)(F)F)c2)[C@@H](c2ccc(F)cc2)c2c(C(=O)N3[C@H](C#N)C[C@H]4C[C@H]43)nn([C@@H]3CCOC3)c21 (single isomer, unassigned) [Compound I-482] | ≤ 200 nM | – | – | ≤ 200 nM | – | ≤ 100 nM | –
CCN1C(=O)[C@@H](NC(=O)[C@H]2C[C@@H]3CCCC[C@@H]3N2)[C@@H](C2CC2)c2c(C(=O)N3[C@H](C#N)C[C@H]4C[C@H]43)nn(C3CCOCC3)c21 [Compound I-566] | 1000 to 3000 nM | 1000 to 3000 nM | > 1000 nM | – | – | – | –
CCN1C(=O)[C@H](NC(=O)c2cccc(C(F)(F)F)c2)[C@H](c2ccc(F)cc2)c2c(C(=O)N[C@@H](C)C#N)nn(-c3ccccc3)c21 [Compound I-255, (4R,5R)—N—((S)-1-cyanoethyl)-7-ethyl-4-(4-fluorophenyl)-6-oxo-1-phenyl-5-(3-(trifluoromethyl)benzamido)-4,5,6,7-tetrahydro-1H-pyrazolo[3,4-b]pyridine-3-carboxamide] | 1000 to 3000 nM | 1000 to 3000 nM | > 1000 nM | – | – | – | –
CCN1C(=O)[C@@H](NC(=O)c2nccc(C(F)(F)F)n2)[C@H](c2ccc(F)cc2)c2c(CNC(=O)/C=C/C(=O)N3CCCC3)nn(-c3ccccc3)c21 [Compound I-495] | 200 to 1000 nM | 200 to 1000 nM | > 1000 nM | – | – | – | –
CCN1C(=O)[C@H](NC(=O)c2cccc(C(F)(F)F)c2)[C@H](c2ccc(F)cc2)c2c(C(=O)N(CC#N)C3CC3)nn(C3CCOCC3)c21 [Compound I-414] | 1000 to 3000 nM | 1000 to 3000 nM | > 1000 nM | – | – | – | –
CCN1C(=O)[C@@H](NC(=O)c2cccn(C3CC3)c2=O)[C@@H](C2CC2)c2c(C(=O)N3[C@H](C#N)C[C@H]4C[C@H]43)nn(C3CCOCC3)c21 [Compound I-625] | 1000 to 3000 nM | 1000 to 3000 nM | – | – | – | > 1000 nM | –
CCN1C(=O)[C@H](NC(=O)c2cccc(C(F)(F)F)c2)[C@H](c2ccc(F)cc2)c2c(C(=O)N3CCNC[C@@H]3C#N)nn(-c3ccccc3)c21 [Compound I-534] | 1000 to 3000 nM | 1000 to 3000 nM | > 1000 nM | – | – | – | –
CCN1C(=O)[C@@H](NC(=O)c2cccc(C(F)(F)F)c2)[C@@H](C2CC2)c2c(C(=O)N3CC(=O)C[C@H]3C#N)nn(C3CCOCC3)c21 [Compound I-626, N-((4S,5S)-3-((S)-2-cyano-4-oxopyrrolidine-1-carbonyl)-4-cyclopropyl-7-ethyl-6-oxo-1-(tetrahydro-2H-pyran-4-yl)-4,5,6,7-tetrahydro-1H-pyrazolo[3,4-b]pyridin-5-yl)-3-(trifluoromethyl)benzamide] | ≤ 200 nM | – | ≤ 100 nM | ≤ 200 nM | – | – | –
CCN1C(=O)[C@@H](NC(=O)c2cccc(C(F)(F)F)c2)[C@@H](C2CC2)c2c(C(=O)N(CC#N)CCCN(C)C)nn(C3CCOCC3)c21 [Compound I-683] | ≤ 200 nM | 200 to 1000 nM | ≤ 100 nM | – | – | – | –
CCN1C(=O)[C@H](NC(=O)c2cccc(C(F)(F)F)c2)[C@H](C2CC2)c2c(C(=O)N(C)C(C)C#N)nn(-c3ccccc3)c21 (stereo partly drawn) [Compound I-676] | 1000 to 3000 nM | 1000 to 3000 nM | > 1000 nM | – | – | – | –
CCN1C(=O)[C@@H](NC(=O)c2cccc(C(F)(F)F)c2)[C@@H](C2CC2)c2c(C(=O)N3CCC[C@H]3C#N)nn(-c3ccccc3)c21 [Compound I-686] | ≤ 200 nM | 1000 to 3000 nM | – | – | – | – | + +
CCN1C(=O)[C@@H](NC(=O)c2cccc(C(F)(F)F)c2)[C@@H](c2ccc(F)cn2)c2c(C(=O)N3CCC[C@H]3C#N)nn(-c3ccccc3)c21 (mixture of isomers) [Compound I-409] | ≤ 200 nM | 1000 to 3000 nM | 100 to 1000 nM | – | – | – | –
CCN1C(=O)[C@@H](NC(=O)c2cccc(C(F)(F)F)c2)[C@@H](c2ccc(F)cc2)c2c(COCC#N)nn(-c3ccccc3)c21 [Compound I-685] | ≤ 200 nM | – | 100 to 1000 nM | ≤ 200 nM | – | – | –
